Values after ≈ are worked out from the molar mass of the structure shown.
What was measured:
[1] = system: Staphylococcus aureus; assay: Antimicrobial activity against methicillin-susceptible Staphylococcus aureus 543 measured on day 20 by macrodilution method; format: functional; conditions: Staphylococcus aureus, 543, 480 h
[2] = system: Staphylococcus aureus; assay: Antimicrobial activity against vancomycin-intermediate Staphylococcus aureus 555 measured on day 15 by macrodilution method; format: functional; conditions: Staphylococcus aureus, 555, 360 h
[3] = system: Staphylococcus aureus; assay: Antimicrobial activity against vancomycin-intermediate Staphylococcus aureus 555 measured on day 40 by macrodilution method; format: functional
[4] = system: Staphylococcus aureus; assay: Antimicrobial activity against methicillin-susceptible Staphylococcus aureus 540 measured on day 15 by macrodilution method; format: functional; conditions: Staphylococcus aureus, 540, 360 h
[5] = system: Staphylococcus aureus; assay: Antimicrobial activity against methicillin-susceptible Staphylococcus aureus 540 measured on day 35 by macrodilution method; format: functional
[6] = system: Staphylococcus aureus; assay: Antimicrobial activity against methicillin-resistant Staphylococcus aureus 525 measured on day 35 by macrodilution method; format: functional
[7] = system: Staphylococcus aureus; assay: Antimicrobial activity against methicillin-resistant Staphylococcus aureus 547 measured on day 25 by macrodilution method; format: functional; conditions: Staphylococcus aureus, 547, 600 h
[8] = system: Staphylococcus aureus; assay: Antimicrobial activity against methicillin-susceptible Staphylococcus aureus 540 measured on day 40 by macrodilution method; format: functional
[9] = system: Staphylococcus aureus; assay: Antimicrobial activity against heterogeneous vancomycin-intermediate Staphylococcus aureus 168 after 50 passages by macrodilution method; format: functional
[10] = system: Staphylococcus aureus; assay: Antimicrobial activity against methicillin-susceptible Staphylococcus aureus 540 measured on day 20 by macrodilution method; format: functional; conditions: Staphylococcus aureus, 540, 480 h
[11] = system: Staphylococcus aureus; assay: Antimicrobial activity against methicillin-resistant Staphylococcus aureus 547 measured on day 30 by macrodilution method; format: functional
[12] = system: Staphylococcus aureus; assay: Antimicrobial activity against vancomycin-intermediate Staphylococcus aureus 555 measured on day 35 by macrodilution method; format: functional
[13] = system: Staphylococcus aureus; assay: Antimicrobial activity against methicillin-resistant Staphylococcus aureus 547 measured on day 35 by macrodilution method; format: functional
[14] = system: Staphylococcus aureus; assay: Antimicrobial activity against methicillin-resistant Staphylococcus aureus 525 measured on day 20 by macrodilution method; format: functional; conditions: Staphylococcus aureus, 525, 480 h
[15] = system: Staphylococcus aureus; assay: Antimicrobial activity against methicillin-resistant Staphylococcus aureus 525 measured on day 40 by macrodilution method; format: functional
[16] = system: Staphylococcus aureus; assay: Antimicrobial activity against methicillin-susceptible Staphylococcus aureus 543 measured on day 50 by macrodilution method; format: functional
[17] = system: Staphylococcus aureus; assay: Antimicrobial activity against vancomycin-intermediate Staphylococcus aureus 555 measured on day 20 by macrodilution method; format: functional; conditions: Staphylococcus aureus, 555, 480 h
[18] = system: Staphylococcus aureus; assay: Antimicrobial activity against methicillin-susceptible Staphylococcus aureus 543 measured on day 45 by macrodilution method; format: functional
[19] = system: Staphylococcus aureus; assay: Antimicrobial activity against vancomycin-intermediate Staphylococcus aureus 555 by macrodilution method; format: functional
[20] = system: Staphylococcus aureus; assay: Antimicrobial activity against vancomycin-resistant Staphylococcus aureus 509 measured after 10 antibiotic-free subculturing by macrodilution method; format: functional
[21] = system: Staphylococcus aureus; assay: Antimicrobial activity against vancomycin-intermediate Staphylococcus aureus 555 measured on day 30 by macrodilution method; format: functional
[22] = system: Staphylococcus aureus; assay: Antimicrobial activity against methicillin-resistant Staphylococcus aureus 525 measured on day 50 by macrodilution method; format: functional
[23] = system: Staphylococcus aureus; assay: Antimicrobial activity against methicillin-resistant Staphylococcus aureus 547 measured on day 50 by macrodilution method; format: functional
[24] = system: Staphylococcus aureus; assay: Antimicrobial activity against methicillin-susceptible Staphylococcus aureus 543 after 50 passages by macrodilution method; format: functional
[25] = system: Staphylococcus aureus; assay: Antimicrobial activity against methicillin-resistant Staphylococcus aureus 525 measured on day 30 by macrodilution method; format: functional
[26] = system: Staphylococcus aureus; assay: Antimicrobial activity against vancomycin-intermediate Staphylococcus aureus 1287 measured on day 45 by macrodilution method; format: functional
[27] = system: Staphylococcus aureus; assay: Antimicrobial activity against methicillin-susceptible Staphylococcus aureus 543 measured on day 30 by macrodilution method; format: functional
[28] = system: Staphylococcus aureus; assay: Antimicrobial activity against vancomycin-intermediate Staphylococcus aureus 555 measured on day 5 by macrodilution method; format: functional; conditions: Staphylococcus aureus, 555, 120 h
[29] = system: Staphylococcus aureus; assay: Antimicrobial activity against heterogeneous vancomycin-intermediate Staphylococcus aureus 168 measured on day 40 by macrodilution method; format: functional
[30] = system: Staphylococcus aureus; assay: Antimicrobial activity against vancomycin-intermediate Staphylococcus aureus 555 measured on day 50 by macrodilution method; format: functional
[31] = system: Staphylococcus aureus; assay: Antimicrobial activity against vancomycin-intermediate Staphylococcus aureus 1287 after 50 passages by macrodilution method; format: functional
[32] = system: Staphylococcus aureus; assay: microbe, parasite or virus in culture; conditions: 547
Description: Antimicrobial activity against methicillin-resistant Staphylococcus aureus 547 after 50 passages by macrodilution method

[33] = system: Staphylococcus aureus; assay: Antimicrobial activity against methicillin-susceptible Staphylococcus aureus 540 measured on day 50 by macrodilution method; format: functional
[34] = system: Staphylococcus aureus; assay: Antimicrobial activity against methicillin-susceptible Staphylococcus aureus 540 measured on day 25 by macrodilution method; format: functional; conditions: Staphylococcus aureus, 540, 600 h
[35] = system: Staphylococcus aureus; assay: Antimicrobial activity against vancomycin-resistant Staphylococcus aureus 510 by macrodilution method; format: functional
[36] = system: Staphylococcus aureus; assay: Antimicrobial activity against heterogeneous vancomycin-intermediate Staphylococcus aureus 168 measured on day 20 by macrodilution method; format: functional; conditions: Staphylococcus aureus, 168, 480 h
[37] = system: Staphylococcus aureus; assay: Antimicrobial activity against vancomycin-resistant Staphylococcus aureus 509 by macrodilution method; format: functional
[38] = system: Staphylococcus aureus; assay: Antimicrobial activity against heterogeneous vancomycin-intermediate Staphylococcus aureus 168 measured on day 50 by macrodilution method; format: functional
[39] = system: Staphylococcus aureus; assay: Antimicrobial activity against heterogeneous vancomycin-intermediate Staphylococcus aureus 873 measured on day 30 by macrodilution method; format: functional
[40] = system: Staphylococcus aureus; assay: Antimicrobial activity against heterogeneous vancomycin-intermediate Staphylococcus aureus 168 measured on day 35 by macrodilution method; format: functional
[41] = system: Staphylococcus aureus; assay: Antimicrobial activity against vancomycin-intermediate Staphylococcus aureus 555 measured on day 45 by macrodilution method; format: functional
[42] = system: Staphylococcus aureus; assay: Antimicrobial activity against methicillin-resistant Staphylococcus aureus 525 after 50 passages by macrodilution method; format: functional
[43] = system: Staphylococcus aureus; assay: Antimicrobial activity against methicillin-susceptible Staphylococcus aureus 540 measured on day 45 by macrodilution method; format: functional
[44] = system: Staphylococcus aureus; assay: Antimicrobial activity against vancomycin-intermediate Staphylococcus aureus 555 measured on day 10 by macrodilution method; format: functional; conditions: Staphylococcus aureus, 555, 240 h
[45] = system: Staphylococcus aureus; assay: Antimicrobial activity against methicillin-susceptible Staphylococcus aureus 540 measured on day 30 by macrodilution method; format: functional
[46] = system: Staphylococcus aureus; assay: Antimicrobial activity against methicillin-resistant Staphylococcus aureus 525 measured on day 45 by macrodilution method; format: functional
[47] = system: Staphylococcus aureus; assay: Antimicrobial activity against heterogeneous vancomycin-intermediate Staphylococcus aureus 168 measured on day 25 by macrodilution method; format: functional; conditions: Staphylococcus aureus, 168, 600 h
[48] = system: Staphylococcus aureus; assay: Antimicrobial activity against vancomycin-intermediate Staphylococcus aureus 1287 measured on day 50 by macrodilution method; format: functional
[49] = system: Staphylococcus aureus; assay: Antimicrobial activity against methicillin-susceptible Staphylococcus aureus 543 measured on day 15 by macrodilution method; format: functional; conditions: Staphylococcus aureus, 543, 360 h
[50] = system: Staphylococcus aureus; assay: Antimicrobial activity against vancomycin-intermediate Staphylococcus aureus 555 measured on day 25 by macrodilution method; format: functional; conditions: Staphylococcus aureus, 555, 600 h
[51] = system: Staphylococcus aureus; assay: microbe, parasite or virus in culture; conditions: 555
Description: Antimicrobial activity against vancomycin-intermediate Staphylococcus aureus 555 after 50 passages by macrodilution method

[52] = system: Staphylococcus aureus; assay: Antimicrobial activity against methicillin-susceptible Staphylococcus aureus 543 measured on day 25 by macrodilution method; format: functional; conditions: Staphylococcus aureus, 543, 600 h
[53] = system: Staphylococcus aureus; assay: Antimicrobial activity against vancomycin-resistant Staphylococcus aureus 510 after 50 passages by macrodilution method; format: functional
[54] = system: Staphylococcus aureus; assay: Antimicrobial activity against methicillin-susceptible Staphylococcus aureus 540 after 50 passages by macrodilution method
[55] = system: Staphylococcus aureus; assay: Antimicrobial activity against heterogeneous vancomycin-intermediate Staphylococcus aureus 168 measured on day 45 by macrodilution method; format: functional
[56] = system: Staphylococcus aureus; assay: Antimicrobial activity against methicillin-susceptible Staphylococcus aureus 543 measured on day 35 by macrodilution method; format: functional
[57] = system: Staphylococcus aureus; assay: Antimicrobial activity against vancomycin-intermediate Staphylococcus aureus 1287 measured on day 15 by macrodilution method; format: functional; conditions: Staphylococcus aureus, 1287, 360 h

Compound: CN[C@H](CC(C)C)C(=O)N[C@H]1C(=O)N[C@@H](CC(N)=O)C(=O)N[C@H]2C(=O)N[C@H]3C(=O)N[C@H](C(=O)N[C@H](C(=O)O)c4cc(O)cc(O)c4-c4cc3ccc4O)[C@H](O)c3ccc(c(Cl)c3)Oc3cc2cc(c3O[C@@H]2O[C@H](CO)[C@@H](O)[C@H](O)[C@H]2O[C@H]2C[C@](C)(N)[C@H](O)[C@H](C)O2)Oc2ccc(cc2Cl)[C@H]1O [VANCOMYCIN]
- MIC [1]: 8 µg/mL (≈ 5.52 µM)
- MIC [2]: 8 µg/mL (≈ 5.52 µM)
- MIC [3]: 32 µg/mL (≈ 22.1 µM)
- MIC [4]: 8 µg/mL (≈ 5.52 µM)
- MIC [5]: 8 µg/mL (≈ 5.52 µM)
- MIC [6]: 8 µg/mL (≈ 5.52 µM)
- MIC [7]: 8 µg/mL (≈ 5.52 µM)
- MIC [8]: 32 µg/mL (≈ 22.1 µM)
- MIC [9]: 8 µg/mL (≈ 5.52 µM)
- MIC [10]: 8 µg/mL (≈ 5.52 µM)
- MIC [11]: 16 µg/mL (≈ 11 µM)
- MIC [12]: 32 µg/mL (≈ 22.1 µM)
- MIC [13]: 8 µg/mL (≈ 5.52 µM)
- MIC [14]: 8 µg/mL (≈ 5.52 µM)
- MIC [15]: 16 µg/mL (≈ 11 µM)
- MIC [16]: 8 µg/mL (≈ 5.52 µM)
- MIC [17]: 8 µg/mL (≈ 5.52 µM)
- MIC [18]: 8 µg/mL (≈ 5.52 µM)
- MIC [19]: 8 µg/mL (≈ 5.52 µM)
- MIC [20]: > 64 µg/mL
- MIC [21]: 16 µg/mL (≈ 11 µM)
- MIC [22]: 8 µg/mL (≈ 5.52 µM)
- MIC [23]: 8 µg/mL (≈ 5.52 µM)
- MIC [24]: 8 µg/mL (≈ 5.52 µM)
- MIC [25]: 0.06 µg/mL (≈ 0.0414 µM)
- MIC [26]: 8 µg/mL (≈ 5.52 µM)
- MIC [27]: 8 µg/mL (≈ 5.52 µM)
- MIC [28]: 8 µg/mL (≈ 5.52 µM)
- MIC [29]: 8 µg/mL (≈ 5.52 µM)
- MIC [30]: 8 µg/mL (≈ 5.52 µM)
- MIC [31]: 8 µg/mL (≈ 5.52 µM)
- MIC [32]: 8 µg/mL (≈ 5.52 µM)
- MIC [33]: 8 µg/mL (≈ 5.52 µM)
- MIC [34]: 8 µg/mL (≈ 5.52 µM)
- MIC [35]: 64 µg/mL (≈ 44.2 µM)
- MIC [36]: 8 µg/mL (≈ 5.52 µM)
- MIC [37]: > 64 µg/mL
- MIC [38]: 8 µg/mL (≈ 5.52 µM)
- MIC [39]: 8 µg/mL (≈ 5.52 µM)
- MIC [40]: 8 µg/mL (≈ 5.52 µM)
- MIC [41]: 32 µg/mL (≈ 22.1 µM)
- MIC [42]: 8 µg/mL (≈ 5.52 µM)
- MIC [43]: 16 µg/mL (≈ 11 µM)
- MIC [44]: 8 µg/mL (≈ 5.52 µM)
- MIC [45]: 8 µg/mL (≈ 5.52 µM)
- MIC [46]: 8 µg/mL (≈ 5.52 µM)
- MIC [47]: 8 µg/mL (≈ 5.52 µM)
- MIC [48]: 8 µg/mL (≈ 5.52 µM)
- MIC [49]: 8 µg/mL (≈ 5.52 µM)
- MIC [50]: 8 µg/mL (≈ 5.52 µM)
- MIC [51]: 8 µg/mL (≈ 5.52 µM)
- MIC [52]: 8 µg/mL (≈ 5.52 µM)
- MIC [53]: ≥ 64 µg/mL
- MIC [54]: 8 µg/mL (≈ 5.52 µM)
- MIC [55]: 8 µg/mL (≈ 5.52 µM)
- MIC [56]: 8 µg/mL (≈ 5.52 µM)
- MIC [57]: 8 µg/mL (≈ 5.52 µM)

— ChEMBL document CHEMBL1649524, “Resistance selection studies comparing the activity of razupenem (PTZ601) to vancomycin and linezolid against eight methicillin-resistant and two methicillin-susceptible Staphylococcus aureus strains” (2009)
